What was measured:
[1] = tested on: Tomato (variety: Rutgers) plants; test: Tomato transpiration inhibition study (foliar application); assay type: in vivo; details: for Transpiration rate (% of control) Average of 3 days after treatment: foliarly applied to tomato leaves; for S-(+)-Abscisic acid doses to achieve 50% inhibition of transpiration / S-(+)-Abscisic acid dose to achieve 50% inhibition of transpiration: foliar, first 3 days after treatment; for S-(+)-Abscisic acid dose to achieve 50% inhibition of transpiration: log-linear regression; for Relative potency: transpiration inhibition
Description: Efficacy of the preferred composition of the present invention was studied with tomato plants to compare its transpiration inhibition effect against 10% potassium salt of S-(+)-Abscisic acid solution (ABA salt) and technical grade active ingredient of the free acid (S-(+)-Abscisic acid). Tomato (variety: Rutgers) seeds were sown in an 18-cell flat filled with Promix PGX (available from Premier Horticulture Inc. Quakertown, Pa.) for four weeks for germination and initial growth. Plants were then transplanted into pots (18 cm in diameter and 18 cm in height) filled with Promix BX (available from Premier Horticulture Inc. Quakertown, Pa.) and grown for another 5 days before treatment. During growing periods, plants received daily irrigation and weekly fertilizer (1 g/L all purpose fertilizer 20-20-20, The Scotts Company, Marysville, Ohio). S-(+)-Abscisic acid solutions of different, formulations were foliar applied to tomato plant leaves at the rate of 24 mL/6 plants. Plants were then placed in a transparent chamber with humidity controlled at relative humidity 40 to 60%. Leaf transpiration rate was measured 1, 2, 3 or 4 and 7 days after treatment using an AP4 Leaf Porometer (Dynamax, Inc., Houston, Tex.). The transpiration rate of each treatment was calculated as the percentage of that of control at each day to reduce day-to-day variation caused by changes of environmental condition such as light intensity and temperature. The log-linear regression between S-(+)-Abscisic acid doses and the average transpiration rates of first 3 days after treatment was used for calculation of S-(+)-Abscisic acid dose to achieve 50% inhibition of transpiration.

Pansy plants = test: Pansy shelf life extension study (sprench application); assay type: in vivo; details: for Days of extended shelf life / S-(+)-Abscisic acid dose (mg) to extend 1 day of shelf life / S-(+)-Abscisic acid dose (mg) to extend 2 days of shelf life: drench and foliar applied; for S-(+)-Abscisic acid dose to extend 1 day shelf life: drench/foliar applied; for S-(+)-Abscisic acid dose (mg) to extend 1 day of shelf life / S-(+)-Abscisic acid dose (mg) to extend 2 days of shelf life: log-linear regression
Description: Efficacy of the preferred composition of the present invention was also studied with Pansy plants to compare its shelf life extension effect against 10% potassium salt of S-(+)-Abscisic acid solution (ABA salt) and technical grade active ingredient of the free acid (S-(+)-Abscisic acid).
Pansy plants were obtained from local retailers as mature plants. Pansy plants were then transplanted into an 18-cell flat filled with Promix BX (available from Premier Horticulture Inc. Quakertown, Pa.) and grown for 3 days prior to treatment.
Uniform plants were selected for the study. Prior to S-(+)-Abscisic acid treatment, plants were saturated with water and then drained for about two hours. A total of 20 mL S-(+)-Abscisic acid solution, which is equivalent to about 10% of the cell volume, was applied to each plant by soil drench/foliar spray application. In the ornamental industry, this method of chemical application is commonly known as a sprench application. In this study, 17 mL solution was drench applied to root zone and 3 mL solution was foliar applied to canopy. Plants were not watered following the S-(+)-Abscisic acid treatment.
After the S-(+)-Abscisic acid treatment, plants were arranged in a randomized complete block experimental design. The plants were rated daily for the extent of wilting on a scale from 1 for no wilting to 4 for complete wilting. A rating of 2.5 was the point at which a plant was determined to be unmarketable and the previous day was recorded as the shelf life of that plant in days. The log-linear regression between S-(+)-Abscisic acid doses and the extension of shelf life over control plants was used for calculation of S-(+)-Abscisic acid dose to extend 1 day or 2 days of shelf life.

canola seed = test: Canola emergence after seed treatment (S-ABA as ammonium salt solution, 6-benzyladenine technical powder); assay type: in vivo; details: for Final emergence (%) / Qrange / T50: 6-BA 0 g/cwt
Description: In this example, the effect of the cytokinin 6-benzyladenine on S-(+)-Abscisic acid induced germination delay on Canola was studied. The experiment was set up as an S-(+)-Abscisic acid-dose×BA-dose factorial experiment, with four doses of S-(+)-Abscisic acid (0, 25, 50, and 100 g/cwt) and four doses of 6-benzyladenine (0, 1, 5 and 25 g/cwt) for a total of 16 treatment combinations. The treatments were made up in 1 ml samples of experimental aqueous seed treatment slurry. S-(+)-Abscisic acid was added in the form of a water solution of the ammonium salt. 6-Benzyladenine was added as technical powder. Ten μl Tween® 20 were added to each sample to help wet and suspend the 6-benzyladenine powder. All of the seed treatment slurry samples contained CP-Clear film-forming agent and Color Coat Red (available from Becker Underwood), each at 1 oz/cwt, and 0.167 oz/cwt Maxim XL fungicide (available from Syngenta). The slurry application volume was 40 oz/cwt (cwt means per 100 lbs or 45.4 kgs of seed). Ten gram samples of canola seed were treated with the experimental slurries using a Hege 11 seed treater with a six-inch bowl.
The seed was planted in plastic boxes containing 1 kg of typical agricultural slit loam. One hundred seeds were planted 2 cm deep in each plastic box, and the soil in the box was adjusted to 21% soil moisture (wet-weight basis). Two replications of the experiment were incubated under constant light in a 10° C. chamber. The soil temperature averaged 12.6° C. The boxes were watered up to the correct weight every 1-2 days, and checked for emergence. Counts of seedlings were continued until it became clear that emergence had ceased (28 days). The final count of emerged seedlings was expressed as a percentage of the 100 seeds planted.
The daily counts were converted to proportions of the final emergence of the box, and a Gompertz curve was fitted to the data from each box using SAS Proc NLIN. From the parameters of the model, median emergence time (T50) and quartile range (Qrange) were estimated for each box. Analysis of variance was performed and means calculated for each of the three responses (Final emergence, T50, Qrange).

[2] = cited from earlier work
[3] = relative to S-(+)-Abscisic acid salt = 1
[4] = relative to S-(+)-Abscisic acid = 1

| Structure (SMILES) | Transpiration rate (% of control) Average of 3 days after treatment ([1]; ABA dose 1 mg) | Transpiration rate (% of control) Average of 3 days after treatment ([1]; ABA dose 3 mg) | Transpiration rate (% of control) Average of 3 days after treatment ([1]; ABA dose 10 mg) | S-(+)-Abscisic acid doses to achieve 50% inhibition of transpiration [1] [mg/plant] | S-(+)-Abscisic acid dose to achieve 50% inhibition of transpiration [1] [mg] | Days of extended shelf life (Pansy plants; ABA dose 1 mg) [days] | Days of extended shelf life (Pansy plants; ABA dose 3 mg) [days] | Days of extended shelf life (Pansy plants; ABA dose 10 mg) [days] | Days of extended shelf life (Pansy plants; ABA dose 30 mg) [days] | S-(+)-Abscisic acid dose to extend 1 day shelf life (Pansy plants) [mg/plant] | S-(+)-Abscisic acid dose (mg) to extend 1 day of shelf life (Pansy plants) [mg] | S-(+)-Abscisic acid dose (mg) to extend 2 days of shelf life (Pansy plants) [mg] | also measured |
| --- | --- | --- | --- | --- | --- | --- | --- | --- | --- | --- | --- | --- | --- |
| CC1=CC(=O)CC(C)(C)[C@@]1(O)/C=C/C(C)=C\C(=O)[O-].[K+] [S-(+)-Abscisic acid salt] | 70 % of control | 60 % of control | 50 % of control | 10.13 | 10.13 | 0.50 | 1.17 | 1.50 | 1.83 | 2.83 | 2.83 | 39.83 | Relative potency [1, 3]: 1; Relative potency (1 day) (Pansy plants; [3]): 1; Relative potency (2 days) (Pansy plants; [3]): 1 |
| CC1=CC(=O)CC(C)(C)[C@@]1(O)/C=C/C(C)=C\C(=O)O [S-(+)-Abscisic acid] | 73 % of control | 63 % of control | 54 % of control | 15.02 | 15.02 | 0 | 0.67 | 0.83 | 1.67 | 8.68 | 8.68 | 79.62 | Relative potency [1, 4]: 1; Relative potency (2 days) (Pansy plants; [4]): 1; final emergence in words (canola seed; S-(+)-Abscisic acid dose of 100 g/cwt): roughly cut in half; Final emergence (%) (canola seed; S-ABA 25 g/cwt): 92.3%; Qrange (canola seed; S-ABA 25 g/cwt): 3.26 days; T50 (canola seed; S-ABA 25 g/cwt): 9.15 days; Final emergence (%) (canola seed; S-ABA 50 g/cwt): 68.9%; Qrange (canola seed; S-ABA 50 g/cwt): 4.27 days; T50 (canola seed; S-ABA 50 g/cwt): 11.20 days; Final emergence (%) (canola seed; S-ABA 100 g/cwt): 53.5%; Qrange (canola seed; S-ABA 100 g/cwt): 4.27 days; T50 (canola seed; S-ABA 100 g/cwt): 12.74 days; highest concentration that can be achieved in pure water ([2]; pure water at room temperature): about 3000 ppm; solubility limit in the tank-mix ([2]; tank-mix): up to 3000 ppm |

Source: patent publication US9023762B2, “Plant growth regulator compositions, methods of preparation and use thereof” (Valent BioSciences Corporation, priority 2011, dated 2015)
